Inconclusive results are not listed.
Test system: U2OS PGC1a acetylation AlphaLISA, overnight
Test: PGC1a acetylation increase, cellular AlphaLISA – cell-based, cherry-picked samples, set 6, dose response (AID 720513);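 also: cells made to overexpress flag tagged PGC1a plus GCN5 acetyltransferase by viral infection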

| SMILES | AC40 |
| --- | --- |
| CC1CCN(S(=O)(=O)c2ccc(NC(=O)c3ccccc3F)cc2)CC1 | 15.3 µM |
| O=C(COCc1cc(-c2ccc3c(c2)OCO3)on1)Nc1cccnc1 | 0.458 µM |
| O=C(Nc1cccnc1)c1ccc(Oc2ccccc2)cc1 | 2.19 µM |
| Cc1ccc(O)c(C(=O)c2cnc3c(c2)CN(CCC(C)C)C(=O)N3)c1 | 10.2 µM |
| Cc1ccc(-c2nnc(N3CCN(C(=O)COc4ccccc4)CC3)c3ccccc23)cc1 | 0.734 µM |
| O=C(CSc1nnc(Cn2cnc3ccccc32)o1)c1ccccc1 | 7.68 µM |
| CCOC(=O)c1c(NC(=O)CSc2cn(CC)c3ccccc23)sc2c1CCC2 | 6.55 µM |
| COc1ccc(-c2cc(-c3ccccc3O)[nH]n2)cc1OC | 7.33 µM |
| O=C(c1ccco1)N1CCN(c2nnc(-c3ccccc3)c3ccccc23)CC1 | 4.28 µM |
| CCC(C)(C)n1nnnc1C(c1ccccc1OC)N1CCSCC1 (stereo unspecified) | 1.45 µM |
| Cc1ccc(C(=O)c2c[nH]c(C(=O)NCc3cccnc3)c2)cc1 | 2.67 µM |
| CC1(C)CCCN(C(=O)N2c3ccccc3Sc3ccccc32)C1 | 1.33 µM |
| CC(C)c1ccc(NC(=O)c2ccc3c(c2)CCN3S(C)(=O)=O)cc1 | 13.9 µM |
| CCCCn1c(CN(Cc2ccccc2)Cc2ccccc2)nc2c1c(=O)n(C)c(=O)n2C | 3.88 µM |
| CCC(=O)Nc1ccc(C(=O)Cn2ncc(Cl)c(Cl)c2=O)cc1 | 1.63 µM |
| COc1ccc(C#Cc2c(-c3ccccc3)n(-c3ccccc3)c3ccc(CO)cc23)cc1 | 2.19 µM |
| Cc1cc(C)c(S(=O)(=O)Nc2ccccc2-c2ccccc2)c(C)c1 | 3.95 µM |
| OC(COc1ccc(CNCCc2ccc(C(F)(F)F)cc2)cc1)CN1CCCCC1 (stereo unspecified) | 0.9 µM |
| COc1ccccc1NC(=O)c1ccc(NC(=O)CNC(=O)c2ccc(OC)c(OC)c2)cc1 | 15.7 µM |
| COc1ccc(CCC(=O)NCCS(=O)(=O)N2CCN(c3ccccc3)CC2)cc1 | 13.4 µM |
| CCOC(=O)C1=CC[C@@H](c2ccc([N+](=O)[O-])cc2)N(S(=O)(=O)c2ccc(C)cc2)[C@H]1c1ccccc1 | 5.13 µM |
| Cc1ccc(C(=O)N2CCN(c3ccc(NC(=O)c4ccc(Br)o4)cc3)CC2)cc1 | 3.72 µM |
| COc1ccc(-c2c(-c3cc(OC)cc(OC)c3)n(C)c3ccc(-c4cnc(N)nc4)cc23)cc1 | 0.974 µM |
| COc1ccc(Cc2nc(-c3ccc(NC(=O)c4cccnc4)cc3)no2)cc1 | 0.991 µM |
| CCCCCOC(=O)Cc1c(O)c2ccccc2n(C)c1=O | 9.64 µM |
| O=C1NCN(c2ccccc2)C12CCN(C(c1cc3ccccc3o1)c1nnnn1C1CCCCC1)CC2 (stereo unspecified) | 1.78 µM |

| SMILES | AC40 |
| --- | --- |
| C[C@@H]1CN([C@@H](C)CO)C(=O)c2c(c3ccccc3n2C)-c2ccccc2CO[C@@H]1CN(C)C(=O)Nc1ccccc1C(F)(F)F | 6.99 µM |
| O=S(=O)(c1cccc(F)c1)N1CCN(Cc2cc3c(cc2Br)OCCO3)CC1 | 0.411 µM |
| C[C@@H]1CN([C@@H](C)CO)C(=O)c2c(c3ccccc3n2C)-c2ccccc2CO[C@@H]1CN(C)C(=O)c1ccccc1 | 5.25 µM |
| C[C@@H]1CN([C@@H](C)CO)C(=O)c2c(c3ccccc3n2C)-c2ccccc2CO[C@@H]1CN(C)C(=O)Nc1ccc2c(c1)OCO2 | 7.87 µM |
| O=C(Nc1ccccc1)C1=C[C@@H](c2ccc(C(F)(F)F)cc2)C[C@@H](OCc2ccc(CO)cc2)O1 | < 2.6 µM |
| Cc1ccccc1-c1ccc2c(c1)O[C@H](CN(C)Cc1ccncc1)[C@@H](C)CN([C@@H](C)CO)S2(=O)=O | 14.9 µM |
| CN1CCN(C(=O)CSc2nc(-c3cccs3)cc(-c3cccs3)c2C#N)CC1 | 2.77 µM |
| O=C(NCCC1CCCCN1S(=O)(=O)c1cccs1)C(=O)Nc1ccc(F)cc1F (stereo unspecified) | 9.6 µM |
| CCOc1ccc(Nc2oc(-c3ccc(Cl)cc3)nc2C#N)cc1 | 3.09 µM |
| Nc1ccccc1Oc1ncc(C(F)(F)F)cc1Cl | 7.04 µM |
| OCc1ccc2c(c1)c(-c1ccc3c(c1)OCCO3)c(-c1ccccc1)n2-c1ccccc1 | 0.184 µM |
| CCOC(=O)C(NC(=O)c1ccccc1OCC)(Nc1ncccn1)C(F)(F)F (stereo unspecified) | 1.32 µM |
| CO[C@@H]1CN(C)C(=O)c2cc(NC(=O)c3ccc(Oc4ccccc4)cc3)ccc2OC[C@@H](C)NC[C@@H]1C | 15.2 µM |
| CCCCN(CC)CCCNC(=O)c1cc2c(=O)n(CC)c3ccccc3c2s1 | 1.26 µM |
| O=C(CC1SC(=NCc2ccccc2)NC1=O)Nc1ccccc1 (stereo unspecified) | 0.632 µM |
| O=C(CCc1nc2ccccc2c(=O)[nH]1)Nc1ccc(N2CCCCC2)cc1 | 4.4 µM |
| COc1ccc([C@H]2/C=C\CN(S(=O)(=O)/C=C/c3ccccc3)[C@@H](C)C(=O)N2Cc2ccc(F)cc2)cc1 | 5.99 µM |
| O=C(CCCc1nc(-c2ccccc2Cl)no1)NCc1cccnc1 | 3.78 µM |
| CC(=O)CCS(=O)(=O)c1ccc(C)c(C)c1 | 6.64 µM |
| CCn1nc(C)c(CN2CCc3c([nH]c4ccccc34)C2C(C)(C)C)c1C (stereo unspecified) | 0.88 µM |
| COc1cc(CN2CC3(CCN(S(=O)(=O)c4cccs4)CC3)c3c(n(C)c4cc(OC)ccc34)[C@H]2CO)cc(OC)c1 | 14.3 µM |
| CC1(Cc2ccc(Cl)cc2)C(=O)Nc2c(Cl)ccc(Cl)c21 (stereo unspecified) | 4.52 µM |
| O=C(NCc1cccnc1)c1ccc(NC(=O)c2cccc([N+](=O)[O-])c2)cc1 | < 0.16 µM |
| CC1CCCCN1C(=O)/C(=C\c1ccccc1)c1ccccc1 (stereo unspecified) | 8.57 µM |
| COC(=O)[C@H](Cc1ccccc1)N(C)S(=O)(=O)c1cccc(S(=O)(=O)N(C)[C@@H](Cc2ccccc2)C(=O)OC)c1 | 9.66 µM |
| O=C(CN1CCC(n2nnc3cc(F)ccc32)CC1)NCc1ccco1 | 1.69 µM |

| SMILES | AC40 |
| --- | --- |
| C[C@@H]1CN([C@H](C)CO)C(=O)c2cc(N(C)C)ccc2O[C@@H](C)CCCCO[C@H]1CN(C)C(=O)Nc1ccccc1 | 10.6 µM |
| CCOc1ccc(NC2c3ccccc3C(=O)N2Cc2ccc3c(c2)OCO3)cc1 (stereo unspecified) | 16.3 µM |
| CCN(CC)c1ccc(NC(=O)c2cc(OC)cc(OC)c2)c(C)c1 | 12.3 µM |
| Cc1ccc(CNC(=O)C2CC(c3ccc([N+](=O)[O-])cc3)=NO2)cc1 (stereo unspecified) | 4 µM |
| CCc1nnc(NC(=O)Cc2ccc(S(=O)(=O)N3CCCCC3)cc2)s1 | 16.6 µM |
| N#Cc1ccc(Oc2cccnc2)cc1C#N | 6.09 µM |
| O=S(=O)(NC12CC3CC(CC(C3)C1)C2)c1ccc(F)cc1 | 4.02 µM |
| CC(C)(C)c1ccc(NC(=O)N2CCN(c3ccc([N+](=O)[O-])cn3)CC2)cc1 | < 0.16 µM |
| CC1CC(NS(=O)(=O)c2cccs2)CC(C)(C)C1 (stereo unspecified) | 0.437 µM |
| O=C(CCCCCN1C(=O)c2cccc3cccc(c23)C1=O)NCc1cccnc1 | 0.207 µM |
| COc1ccc2c(c1)CCc1c(C(=O)NCCCn3ccnc3)noc1-2 | 18.9 µM |
| O=C(NCCC1=CCCCC1)c1coc(=O)c(Br)c1 | 1.37 µM |
| COc1ccc(CC(=O)OCC(=O)NCc2ccco2)cc1 | 9.28 µM |
| CCOC(=O)c1ccccc1NS(=O)(=O)c1ccc(OCC)cc1 | 3.3 µM |
| C[C@@H]1CN([C@H](C)CO)C(=O)c2c(c3ccccc3n2C)-c2ccccc2CO[C@@H]1CN(C)C(=O)[C@H](C)c1ccccc1 | 3.36 µM |
| CCOC(=O)CCc1c(C)c2ccc(O)cc2oc1=O | 0.371 µM |
| Cc1ccc(OCC(=O)NCCCNC(=O)c2cccnc2)cc1C | 2.1 µM |
| CCOC(=O)C1(Cc2ccccc2)CCN(Cc2cccc(OC)c2O)CC1 | 6.65 µM |
| O=C(c1ccccc1Nc1ccc(SC(F)F)cc1)N1CCCCCC1 | 10.3 µM |
| Cc1cc(C(=O)NNS(=O)(=O)c2ccc(F)cc2)nn1C(C)(C)C | 1.09 µM |
| COc1cccc(-c2ccc(C3[C@@H]4CN(Cc5ccccn5)C[C@H]3N4)cc2)c1 (stereo partly specified) | 13.5 µM |
| COc1ccc(NC(=O)Cn2ncc(Cl)c(Cl)c2=O)cc1S(=O)(=O)N1CCOCC1 | 1.6 µM |
| Cc1cccc(Oc2nccc(C(F)(F)F)c2C(=O)Nc2ccc(F)cc2F)c1 | 11.9 µM |
| C=C[C@H]1C(C(=O)OCC)=CC[C@@H](c2ccccc2)N1S(=O)(=O)c1ccc(C)cc1 | 0.249 µM |
| COc1cccc(N(CC(=O)NCc2cccnc2)S(C)(=O)=O)c1 | 14.2 µM |
| COc1cc(OC)c2c(-c3cccc(-c4cccc(C)c4)c3)cc(=O)oc2c1 | 1.56 µM |

| SMILES | AC40 |
| --- | --- |
| Nc1c(C(=O)Nc2ccccc2)c2nc3ccccc3nc2n1CCCN1CCOCC1 | 4.85 µM |
| O=C(Nc1ccc(Nc2ccncc2)cc1)c1ccc([N+](=O)[O-])cc1 | 3.4 µM |
| COC(=O)C(Nc1ccccc1Cl)(c1cc(C)c(O)c(C)c1)C(F)(F)F (stereo unspecified) | 0.641 µM |
| CN(C)CC(O)c1ccc(C=Cc2ccc(Cl)cc2)cc1 (stereo unspecified) | 3.19 µM |
| COc1cc2nc(SCc3c(C)noc3C)n(CCC3=CCCCC3)c(=O)c2cc1OC | 2.51 µM |
| Cc1ccc(S(=O)(=O)Nc2ccc3c(c2)C(=O)N([C@@H](C)CO)C[C@@H](C)[C@H](CN(C)C(=O)Nc2cccc4ccccc24)OCCCC[C@H](C)O3)cc1 | 3.83 µM |
| C=CCS(=O)(=O)c1nc2ccccc2s1 | 2.99 µM |
| O=C(Cc1ccccc1)N1CCN(C(=O)c2cccs2)CC1 | 10 µM |
| Cc1cccc(C)c1-n1nnnc1C(c1cccs1)N1CCC(n2c(=O)[nH]c3ccccc32)CC1 (stereo unspecified) | 5.87 µM |
| Cc1ccc(Cl)cc1NC(=O)Cn1nc(-c2cccs2)ccc1=O | 4.08 µM |
| COc1ccccc1-c1ccc2c(c1)O[C@@H](CN(C)Cc1ccc3c(c1)OCO3)[C@@H](C)CN([C@@H](C)CO)S2(=O)=O | 10.6 µM |
| COc1ccc(C(=O)NN(C)c2nc(-c3ccccc3)cc(C)c2S(C)(=O)=O)cc1 | 19 µM |
| C[C@@H]1CN([C@@H](C)CO)C(=O)Cc2cc(NC(=O)Cc3ccccc3)ccc2O[C@H]1CN(C)C(=O)Nc1ccccc1 | 0.263 µM |
| COC(=O)CSc1nc(-c2ccccc2)cc(-c2ccco2)c1C#N | 6.11 µM |
| COc1cccc(C(=O)c2c[nH]c(C(=O)NCc3cccnc3)c2)c1 | 1.4 µM |
| CCOC(=O)c1oc2ccc(S(=O)(=O)N3CCC(C)CC3)cc2c1C | 17.1 µM |
| CC(C)C(c1nnnn1Cc1ccccc1)N(Cc1ccco1)Cc1cccs1 (stereo unspecified) | 0.907 µM |
| Oc1ccc(C[C@@H]2CNCCN2CCC23CC4CC(CC(C4)C2)C3)cc1 | 6.79 µM |
| COc1ccccc1OCC(=O)Nc1ccc(Cl)cc1C(=O)c1ccccc1 | 7.29 µM |
| Cc1c(C(=O)N2CCN(c3ccccn3)CC2)sc2ncnc(N3CCN(c4ccccc4)CC3)c12 | 10.9 µM |
| C[C@@H]1CN([C@@H](C)CO)C(=O)c2c(c3ccccc3n2C)-c2ccccc2CO[C@@H]1CN(C)C(=O)Oc1ccccc1 | 7.26 µM |
| Cc1cccc(C)c1-n1nnnc1C(c1ccccc1OC(F)(F)F)N1CCC(n2c(=O)[nH]c3ccccc32)CC1 (stereo unspecified) | 3.94 µM |
| C[C@H]1CN([C@@H](C)CO)S(=O)(=O)c2ccc(C#CCN(C)C)cc2O[C@@H]1CN(C)Cc1ccc2c(c1)OCO2 | 4.76 µM |

Reference: PubChem BioAssay AID720513 (Broad Institute, 2013)
